Experimental data published in ChEMBL document CHEMBL1159167, “Synthesis and biological activity of 5-[(2,5-dihydroxybenzyl)amino]salicylic acid analogs as inhibitors of EGF receptor-associated protein tyrosine kinase” (Bioorg Med Chem Lett, 1997).
pIC50: −log10 of the molar value.

The compounds below were run against Epidermal growth factor receptor (Homo sapiens, UniProt P00533) (assay: Displacement of [gamma-32P]-ATP from Epidermal growth factor receptor in A431 cell-free extracts).
Sequence of Epidermal growth factor receptor (P00533 whole entry): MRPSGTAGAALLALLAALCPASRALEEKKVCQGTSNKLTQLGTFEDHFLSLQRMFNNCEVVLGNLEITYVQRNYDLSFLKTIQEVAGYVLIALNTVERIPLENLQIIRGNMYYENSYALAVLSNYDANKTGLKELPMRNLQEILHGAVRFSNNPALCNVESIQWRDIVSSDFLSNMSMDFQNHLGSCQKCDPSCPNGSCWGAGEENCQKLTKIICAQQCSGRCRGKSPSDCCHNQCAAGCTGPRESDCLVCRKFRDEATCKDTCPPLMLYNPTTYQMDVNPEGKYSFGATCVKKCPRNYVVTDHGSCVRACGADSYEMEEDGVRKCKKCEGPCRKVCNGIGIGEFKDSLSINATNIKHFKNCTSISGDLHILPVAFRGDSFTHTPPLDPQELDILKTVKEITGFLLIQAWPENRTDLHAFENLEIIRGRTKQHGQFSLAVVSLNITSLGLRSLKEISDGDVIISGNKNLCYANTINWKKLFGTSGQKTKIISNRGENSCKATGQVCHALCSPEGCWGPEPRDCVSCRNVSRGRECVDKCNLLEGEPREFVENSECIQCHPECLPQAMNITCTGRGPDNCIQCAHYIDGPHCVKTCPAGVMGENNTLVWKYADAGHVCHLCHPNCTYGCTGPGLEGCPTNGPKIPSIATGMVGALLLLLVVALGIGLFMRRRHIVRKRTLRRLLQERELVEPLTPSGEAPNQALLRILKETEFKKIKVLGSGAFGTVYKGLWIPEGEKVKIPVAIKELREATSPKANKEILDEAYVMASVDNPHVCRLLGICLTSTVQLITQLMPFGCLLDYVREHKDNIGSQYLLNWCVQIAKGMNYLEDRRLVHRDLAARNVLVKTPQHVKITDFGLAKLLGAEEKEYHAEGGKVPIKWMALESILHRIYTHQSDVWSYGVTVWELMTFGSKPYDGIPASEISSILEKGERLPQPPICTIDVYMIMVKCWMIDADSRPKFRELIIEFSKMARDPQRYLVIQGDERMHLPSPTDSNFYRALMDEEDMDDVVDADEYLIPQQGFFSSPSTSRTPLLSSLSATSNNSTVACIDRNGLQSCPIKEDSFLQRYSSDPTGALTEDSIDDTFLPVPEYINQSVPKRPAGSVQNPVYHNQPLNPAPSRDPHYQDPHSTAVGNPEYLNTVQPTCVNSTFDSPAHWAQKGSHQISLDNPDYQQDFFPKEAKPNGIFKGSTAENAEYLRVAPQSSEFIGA
Set-up: species or system A-431
For `O=[N+]([O-])c1cc(NCc2cc(O)ccc2O)ccc1O`, the pIC50 was 5.27. With `CCCCCCNC(=O)c1cc(NCc2cc(O)ccc2O)ccc1O` the pIC50 was 6.05. With `CNC(=O)c1cc(NCc2cc(O)ccc2O)ccc1O` the pIC50 was 5.01. `Oc1ccc(NCc2cc(O)ccc2O)cc1` showed a pIC50 of 4.38. In the case of `CCCCCCCCCCCCCCNC(=O)c1cc(NCc2cc(O)ccc2O)ccc1O`, the pIC50 was 4.57. Compound `O=S(=O)(O)c1cc(NCc2cc(O)ccc2O)ccc1O` has a pIC50 of 4.99.
